According to US8710233B2 (Gruenenthal GmbH, priority 2005, dated 2014):

Experiments:
VR1/TRPV1 receptor = VR1/TRPV1 receptor (Homo sapiens, UniProt Q8NER1); experiment: IC50 (human) after pH stimulus; format: cell-based; settings: for IC50: table 4; for inhibition at 5 µM / inhibition at 10 µM / inhibition at 0.1 µM / inhibition at 1 µM: read-out: inhibition in percent, IC50 (human) after pH stimulus
vanilloid receptor (VR1) = biological target: T1, vanilloid receptor (VR1) (Homo sapiens, UniProt Q8NER1); experiment: FLIPR Ca2+ influx assay on CHO K1 cells transfected with the VR1 gene (pharmacological method II); format: cell-based; settings: table 4; capsaicin; read-out: Ki (human) Cap.
T1 construct: expressed in transfected cells; host or cells: CHO K1 cells (ECACC), stably transfected
T1 sequence (Q8NER1 whole entry): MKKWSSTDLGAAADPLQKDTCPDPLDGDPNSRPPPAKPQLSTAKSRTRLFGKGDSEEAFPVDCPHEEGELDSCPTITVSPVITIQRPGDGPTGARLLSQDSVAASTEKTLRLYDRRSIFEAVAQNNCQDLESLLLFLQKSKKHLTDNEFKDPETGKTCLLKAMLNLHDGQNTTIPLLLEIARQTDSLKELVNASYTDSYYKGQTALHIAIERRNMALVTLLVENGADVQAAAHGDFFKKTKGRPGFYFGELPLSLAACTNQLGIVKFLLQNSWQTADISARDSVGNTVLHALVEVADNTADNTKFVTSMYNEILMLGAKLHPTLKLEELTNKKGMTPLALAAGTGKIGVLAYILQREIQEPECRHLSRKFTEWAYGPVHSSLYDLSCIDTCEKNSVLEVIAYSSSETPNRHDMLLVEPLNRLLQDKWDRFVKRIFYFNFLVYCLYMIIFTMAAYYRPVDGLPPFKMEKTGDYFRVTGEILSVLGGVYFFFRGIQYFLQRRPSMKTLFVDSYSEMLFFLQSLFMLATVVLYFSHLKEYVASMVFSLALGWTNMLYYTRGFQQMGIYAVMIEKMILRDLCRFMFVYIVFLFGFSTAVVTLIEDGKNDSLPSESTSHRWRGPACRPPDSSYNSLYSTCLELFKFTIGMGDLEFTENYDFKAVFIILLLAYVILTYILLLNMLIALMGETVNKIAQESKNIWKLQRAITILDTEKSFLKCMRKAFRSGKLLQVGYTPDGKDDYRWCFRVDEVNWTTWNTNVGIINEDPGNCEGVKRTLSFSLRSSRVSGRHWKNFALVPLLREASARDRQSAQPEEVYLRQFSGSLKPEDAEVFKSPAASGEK
From the text: In this FLIPR assay, the influx of Ca^2+ is quantified with the assistance of a Ca^2+-sensitive dye (type Fluo-4, Molecular Probes Europe BV, Leiden, Netherlands) in a Fluorescent Imaging Plate Reader (FLIPR, Molecular Devices, Sunnyvale, USA) as described below.
II. Functional Investigations on the Vanilloid Receptor (VR1)
The agonistic or antagonistic action of the substances to be investigated on the vanilloid receptor (VR1) may also be determined with the following assay. According to this assay, the influx of Ca^2+ through the channel is quantified with the assistance of a Ca^2+-sensitive dye (type Fluo-4, Molecular Probes Europe BV, Leiden, Netherlands) in a Fluorescent Imaging Plate Reader (FLIPR, Molecular Devices, Sunnyvale, USA).
Chinese hamster ovary cells (CHO K1 cells, European Collection of Cell Cultures (ECACC), Great Britain) are stably transfected with the VR1 gene. For functional investigations, these cells are plated out onto poly-D-lysine-coated, black 96 well plates with a clear bottom (BD Biosciences, Heidelberg, Germany) at a density of 25,000 cells/well. The cells are incubated overnight at 37° C. and 5% CO2 in a culture medium (Ham's Nutrient Mixture F12, 10 vol. % FCS (foetal calf serum), 18 μg/mL L-proline). On the following day, the cells are incubated with Fluo-4 (Fluo-4 2 μM, Pluronic F127 0.01 vol. %, Molecular Probes in HBSS (Hank's buffered saline solution), Gibco Invitrogen GmbH, Karlsruhe, Germany) for 30 minutes at 37° C. The plates are then washed 3 times with HBSS buffer and, after a further 15 minutes' incubation at room temperature, used for […] measurement in the FLIPR. […] Quantification proceeds by measuring the highest fluorescence intensity (FC, fluorescence counts) over time.
The FLIPR protocol comprises 2 additions of substance. The substances to be tested (10 μM) are firstly pipetted onto the cells and Ca^2+ influx is compared with the control (capsaicin 10 μM) (% activation relative to the Ca^2+ signal after addition of 10 μM of capsaicin). After 5 minutes' incubation, 100 nM of capsaicin are added and the influx of Ca^2+ is again determined.
The percentage inhibition in comparison with the maximum achievable inhibition with 10 μM capsaicin is calculated.

VR1/TRPV1 receptor, sequence (Q8NER1 whole entry): as above

IC50 (VR1/TRPV1 receptor) [nM] | Ki (vanilloid receptor (VR1)) [nM] | SMILES | further results
43 | 1.7 | CC(C(=O)NCc1ccc(C(F)(F)F)nc1N1CC=C(c2ccccc2)CC1)c1ccc(NS(C)(=O)=O)c(F)c1 (stereo not drawn) [Example 317, 2-(3-fluoro-4-methylsulfonamido-phenyl)-N-(4-phenyl-6′-trifluoromethyl-3,6-dihydro-2H-[1,2′]bipyridinyl-3′-ylmethyl)-propionamide] | –
– | 17.5 | Cc1cc(C(F)(F)F)nc(N2CCC(C)CC2)c1CNC(=O)C(C)c1ccc(NS(C)(=O)=O)c(F)c1 (stereo not drawn) [Example 318, N-(4,4′-dimethyl-6′-trifluoromethyl-3,4,5,6-tetrahydro-2H-[1,2′]bipyridinyl-3′-ylmethyl)-2-(3-fluoro-4-methylsulfonamido-phenyl)-propionamide] | inhibition at 5 µM (VR1/TRPV1 receptor): 4%; inhibition at 10 µM (VR1/TRPV1 receptor): 32%
– | 13.8 | CC(C(=O)NCc1ccc(C(F)(F)F)cc1N1CCN(C2CCCCC2)CC1)c1ccc(NS(C)(=O)=O)c(F)c1 (stereo not drawn) [Example 319, N-[2-(4-cyclohexyl-piperazin-1-yl)-4-trifluoromethyl-benzyl]-2-(3-fluoro-4-methylsulfonamido-phenyl)-propionamide] | inhibition at 5 µM (VR1/TRPV1 receptor): 38%; inhibition at 10 µM (VR1/TRPV1 receptor): 54%
36 | 1.1 | CC(C(=O)NCc1ccc(C(F)(F)F)cc1-c1ccc(C(C)(C)C)cc1)c1ccc(NS(C)(=O)=O)c(F)c1 (stereo not drawn) [Example 320, N-(4′-tert-butyl-5-trifluoromethyl-biphenyl-2-ylmethyl)-2-(3-fluoro-4-methylsulfonamido-phenyl)-propionamide] | –
38 | 0.8 | COc1ccc(-c2cc(C(F)(F)F)ccc2CNC(=O)C(C)c2ccc(NS(C)(=O)=O)c(F)c2)cc1 (stereo not drawn) [Example 321, 2-(3-fluoro-4-methylsulfonamido-phenyl)-N-(4′-methoxy-5-trifluoromethyl-biphenyl-2-ylmethyl)-propionamide] | –
– | 1.9 | CC(C(=O)NCc1ccc(C(F)(F)F)cc1-c1cccc(F)c1)c1ccc(NS(C)(=O)=O)c(F)c1 (stereo not drawn) [Example 323, 2-(3-fluoro-4-methylsulfonamido-phenyl)-N-(3′-fluoro-5-trifluoromethyl-biphenyl-2-ylmethyl)-propionamide] | inhibition at 0.1 µM (VR1/TRPV1 receptor): 15%; inhibition at 1 µM (VR1/TRPV1 receptor; @ 1 μM, ne = no effect): 41%
716 | 8.6 | COc1ccc(-c2cc(C(F)(F)F)ccc2CNC(=O)C(C)c2ccc(NS(C)(=O)=O)c(F)c2)cc1OC (stereo not drawn) [Example 325, N-(3′,4′-dimethoxy-5-trifluoromethyl-biphenyl-2-ylmethyl)-2-(3-fluoro-4-methylsulfonamido-phenyl)-propionamide] | –
– | 25.6 | COc1ccc(-c2nc(C(F)(F)F)ccc2CNC(=O)C(C)c2ccc(NS(C)(=O)=O)c(F)c2)cc1OC (stereo not drawn) [Example 326, N-[2-(3,4-dimethoxy-phenyl)-6-trifluoromethyl-pyridin-3-ylmethyl]-2-(3-fluoro-4-methylsulfonamido-phenyl)-propionamide] | inhibition at 10 µM (VR1/TRPV1 receptor): 66%
342 | 3.4 | CC(C(=O)NCc1ccc(C(F)(F)F)nc1OCC1CCN(C(=O)OC(C)(C)C)CC1)c1ccc(NS(C)(=O)=O)c(F)c1 (stereo not drawn) [Example 327, 4-(3-{[2-(3-fluoro-4-methylsulfonamido-phenyl)-propionylamino]-methyl}-6-trifluoromethyl-pyridin-2-yloxymethyl)-piperidine-1-carbonic acid tert-butyl ester] | –
128 | 0.8 | CCCCCOc1nc(C(C)(C)C)ccc1CNC(=O)C(C)c1ccc(NS(C)(=O)=O)c(F)c1 (stereo not drawn) [Example 328, N-(6-tert-butyl-2-pentyloxy-pyridin-3-ylmethyl)-2-(3-fluoro-4-methylsulfonamido-phenyl)-propionamide] | –
– | 0.7 | CCCN(CCC)c1nc(C(F)(F)F)ccc1CNC(=O)C(C)c1ccc(NS(C)(=O)=O)c(C)c1 (stereo not drawn) [Example 331, N-(2-dipropylamino-6-trifluoromethyl-pyridin-3-ylmethyl)-2-(4-methylsulfonamido-3-methyl-phenyl)-propionamide] | inhibition at 10 µM (VR1/TRPV1 receptor): 31%
159 | 2.4 | CC(C(=O)NCc1ccc(C(F)(F)F)nc1N1CC=C(c2ccc(F)cc2)CC1)c1ccc(NS(C)(=O)=O)c(F)c1 (stereo not drawn) [Example 332, 2-(3-fluoro-4-methylsulfonamido-phenyl)-N-[4-(4-fluoro-phenyl)-6′-trifluoromethyl-3,6-dihydro-2H-[1,2′]bipyridinyl-3′-ylmethyl]-propionamide] | –
99 | 0.7 | CC(C(=O)NCc1ccc(C(F)(F)F)nc1C1=CCCCC1)c1ccc(NS(C)(=O)=O)c(F)c1 (stereo not drawn) [Example 334, N-(2-cyclohex-1-enyl-6-trifluoromethyl-pyridin-3-ylmethyl)-2-(3-fluoro-4-methylsulfonamido-phenyl)-propionamide] | –
– | 1.1 | CCC(CC)Oc1nc(C(F)(F)F)ccc1CNC(=O)C(C)c1ccc(NS(C)(=O)=O)c(F)c1 (stereo not drawn) [Example 335, N-[2-(1-ethyl-propoxy)-6-trifluoromethyl-pyridin-3-ylmethyl]-2-(3-fluoro-4-methylsulfonamido-phenyl)-propionamide] | inhibition in percent, IC50 (human) after pH stimulus (VR1/TRPV1 receptor; @ 1 μM, ne = no effect): ne @ 1 μM
140 | 0.9 | CC(C(=O)NCc1ccc(C(F)(F)F)nc1OC1CCC(C)(C)CC1)c1ccc(NS(C)(=O)=O)c(F)c1 (stereo not drawn) [Example 338, N-[2-(4,4-dimethyl-cyclohexyloxy)-6-trifluoromethyl-pyridin-3-ylmethyl]-2-(3-fluoro-4-methylsulfonamido-phenyl)-propionamide] | –
293 | 1.3 | CC(C(=O)NCc1ccc(C(F)(F)F)nc1OC1CCN(C(=O)OC(C)(C)C)CC1)c1ccc(NS(C)(=O)=O)c(F)c1 (stereo not drawn) [Example 341, 4-(3-{[2-(3-fluoro-4-methylsulfonamido-phenyl)-propionylamino]-methyl}-6-trifluoromethyl-pyridin-2-yloxy)-piperidine-1-carbonic acid tert-butyl ester] | –
1140 | 19.3 | CC(C(=O)NCc1ccc(C(F)(F)F)nc1NCC1CCN(C(=O)OC(C)(C)C)CC1)c1ccc(NS(C)(=O)=O)c(F)c1 (stereo not drawn) [Example 342, 4-[(3-{[2-(3-fluoro-4-methylsulfonamido-phenyl)-propionylamino]-methyl}-6-trifluoromethyl-pyridin-2-ylamino)-methyl]-piperidine-1-carbonic acid tert-butyl ester] | –
– | 2.8 | Cc1ccc(Oc2nc(C(F)(F)F)ccc2CNC(=O)C(C)c2ccc(NS(C)(=O)=O)c(F)c2)cc1 (stereo not drawn) [Example 345, 2-(3-fluoro-4-methylsulfonamido-phenyl)-N-(2-p-tolyloxy-6-trifluoromethyl-pyridin-3-ylmethyl)-propionamide] | inhibition at 0.1 µM (VR1/TRPV1 receptor): 3%; inhibition at 1 µM (VR1/TRPV1 receptor; @ 1 μM, ne = no effect): 38%; inhibition at 5 µM (VR1/TRPV1 receptor): 45%

SMILES | IC50 (VR1/TRPV1 receptor) [nM] | Ki (vanilloid receptor (VR1)) [nM] | further results
CCCC(CCC)Oc1nc(C(F)(F)F)ccc1CNC(=O)C(C)c1ccc(NS(C)(=O)=O)c(F)c1 (stereo not drawn) [Example 336, 2-(3-fluoro-4-methylsulfonamido-phenyl)-N-[2-(1-propyl-butoxy)-6-trifluoromethyl-pyridin-3-ylmethyl]-propionamide] | – | 0.7 | inhibition at 0.1 µM (VR1/TRPV1 receptor): 35%; inhibition at 1 µM (VR1/TRPV1 receptor; @ 1 μM, ne = no effect): 50%
CC(C)CC(CC(C)C)Oc1nc(C(F)(F)F)ccc1CNC(=O)C(C)c1ccc(NS(C)(=O)=O)c(F)c1 (stereo not drawn) [Example 337, 2-(3-fluoro-4-methylsulfonamido-phenyl)-N-[2-(1-isobutyl-3-methyl-butoxy)-6-trifluoromethyl-pyridin-3-ylmethyl]-propionamide] | – | 0.7 | inhibition at 5 µM (VR1/TRPV1 receptor): 6%; inhibition at 10 µM (VR1/TRPV1 receptor): 30%
CC(C(=O)NCc1ccc(C(F)(F)F)nc1OC1CCC(C(F)(F)F)CC1)c1ccc(NS(C)(=O)=O)c(F)c1 (stereo not drawn) [Example 339, 2-(3-fluoro-4-methylsulfonamido-phenyl)-N-[6-trifluoromethyl-2-(4-trifluoromethyl-cyclohexyloxy)-pyridin-3-ylmethyl]-propionamide] | 14 | 0.3 | –
CC(C(=O)NCc1ccc(C(F)(F)F)nc1OC1CCC(C(F)(F)F)CC1)c1ccc(NS(C)(=O)=O)c(F)c1 (stereo not drawn) [Example 340, 2-(3-fluoro-4-methylsulfonamido-phenyl)-N-[6-trifluoromethyl-2-(4-trifluoromethyl-cyclohexyloxy)-pyridin-3-ylmethyl]-propionamide] | 279 | 1.2 | –
